Where two headings read alike, the source gives them in different places. Starred links: 1 amine or outer side, 2 acyl side, 3 side chain; linkers in the order of their positions; H or OH if unused. Positions of bridges follow the written chain, without caps; N, C: chain ends. Non-standard residues stand in square brackets, D forms with d. Residues, ends and D or L forms follow the SMILES beside them. *: point of attachment. X16 = NC(=O)[C@H](CCCCNC(=O)CN1CCN(CC(=O)O)CCN(CC(=O)O)CCN(CC(=O)O)CC1)NC(=O)CCC(=O)NCCCOCCOCCOCCCN*; NH(CH2)3NH(O2Oc(DOTA)) = O=C(O)CN1CCN(CC(=O)O)CCN(CC(=O)NCCOCCOCC(=O)NCCCN*)CCN(CC(=O)O)CC1; DOTA = O=C(O)CN1CCN(CC(=O)O)CCN(CC(=O)*)CCN(CC(=O)O)CC1; mXylylene = c1cc(C[*:1])cc(C[*:2])c1; X2 = O=C(CN1CCC(N[*:1])CC1)[*:2]; tBuAla = CC(C)(C)C[C@H](N)C(=O)O; hSer = N[C@@H](CCO)C(=O)O
Assays:
[1] = molecular target: T1, CAIX-expressing human HT-29 colorectal cancer cells (Homo sapiens, UniProt Q16790); assay: FACS binding assay (IC50 determination, competition with tracer 3BP-2776 or 3BP-4149); settings: 4° C., 1 hour, read-out: pIC50 category (activity) (converted)
T1 construct: CAIX-expressing human HT-29 colorectal cancer cells; host or cells: HT-29 human colorectal cancer cells
Outline: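 HT-29 cells in FACS buffer (PBS, 1% FCS) at 500.000 cells/ml were exposed to compounds competing with a labelled tracer, with biotinylated compounds detected by 1 μg/mL APC-streptavidin for 30 min on ice. APC/Cy5 median fluorescence was read by flow cytometry and IC50 derived by 4PL fit.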

[2] = molecular target: T2, human carbonic anhydrase IX (hCAIX-Fc) (Homo sapiens, UniProt Q16790); assay: Surface plasmon resonance assay with hCAIX-Fc; type: binding; settings: 25° C.; for t1/2 category (activity): SPR dissociation half-life, hCAIX-Fc; for Kd: SPR, hCAIX-Fc captured, read-out: pKD category (activity) (converted)
T2 construct: purchased SinoBliological (Sino Biological) 10107-H02H

NEP = molecular target: T3, NEP (Homo sapiens, UniProt P08473); assay: Proteolytic stability assay against NEP; type: in vitro ADME; settings: human, recombinant soluble human NEP, 100 ng/mL NEP, 10 μM compound, 37°C, read-out: % intact compound remaining after 24 h incubation
T3 construct: Recombinant soluble human NEP; purchased BioTechne, Wiesbaden, Germany
Protocol: To assess the stability of compounds against NEP, the compounds were subjected to an in vitro assay based on the protocol described by Edelson et al. (Edelson et al., Pulmonary pharmacology & therapeutics, 2013, 26, 229-238).
Recombinant soluble human NEP (BioTechne, Wiesbaden, Germany) at a concentration of 100 ng/mL was mixed with the compound (10 μM) and a stable internal standard (10 μM) and incubated at 37° C. After several time points, samples were taken and analyzed with LC-MS.
The activity of NEP was examined using a commercially available chromogenic substrate of NEP.

[3] = Plasma stability assay, mouse plasma; settings: for % intact compound remaining (incubation time): mouse plasma, 37°C, 24 h
[4] = FACS competition on HT-29 cells, Tracer ID 3BP-2776 (10 nM, biotin-labeled)
[5] = FACS binding assay, HT-29 cells, competition with tracer 3BP-2776 (10 nM, biotin-labeled)

T3 sequence (P08473 52-750 limits assumed): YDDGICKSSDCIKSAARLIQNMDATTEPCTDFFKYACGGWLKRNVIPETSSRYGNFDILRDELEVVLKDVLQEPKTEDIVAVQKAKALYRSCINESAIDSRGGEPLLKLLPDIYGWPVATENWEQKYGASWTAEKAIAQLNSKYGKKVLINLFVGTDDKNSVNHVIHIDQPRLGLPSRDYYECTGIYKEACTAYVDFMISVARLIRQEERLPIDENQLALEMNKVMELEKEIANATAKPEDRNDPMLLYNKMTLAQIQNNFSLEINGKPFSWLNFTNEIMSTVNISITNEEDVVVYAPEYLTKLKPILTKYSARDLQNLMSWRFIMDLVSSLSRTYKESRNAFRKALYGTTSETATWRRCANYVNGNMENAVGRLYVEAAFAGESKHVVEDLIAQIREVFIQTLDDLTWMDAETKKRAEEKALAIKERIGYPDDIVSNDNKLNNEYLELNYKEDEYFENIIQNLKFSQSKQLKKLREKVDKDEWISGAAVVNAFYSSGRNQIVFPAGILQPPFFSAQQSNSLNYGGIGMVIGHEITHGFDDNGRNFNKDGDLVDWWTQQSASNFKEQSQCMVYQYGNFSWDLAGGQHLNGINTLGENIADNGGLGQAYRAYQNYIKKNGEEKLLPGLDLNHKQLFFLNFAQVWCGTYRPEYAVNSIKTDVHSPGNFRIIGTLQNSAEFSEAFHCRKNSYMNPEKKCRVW

Structure (SMILES) | IC50 [1, 4] [µM] | t1/2 category (activity) [2] | Kd [2] [µM] | remaining at 24 h, 10 μM (NEP) [%] | IC50 [1, 5] [µM] | % intact compound remaining (incubation time) [3] [%] | remaining at 4 h, […] ([3]; mouse, plasma (K2EDTA)) [%]
CC(=O)N[C@H](C(=O)N[C@@H](Cc1ccc(O)cc1)C(=O)N[C@H]1CSCc2cccc(c2)CSC[C@@H](C(N)=O)NC(=O)[C@H](C)NC(=O)[C@H](Cc2c[nH]c3ccccc23)NC(=O)[C@H]([C@@H](C)O)NC(=O)[C@H](CC(C)C)NC(=O)[C@H](Cc2c[nH]c3ccccc23)NC(=O)[C@H](CC(=O)O)NC(=O)[C@H]2CCCN2C(=O)[C@H](CCC(=O)O)NC1=O)C(C)C [3BP-3282] (Ac-VYCE[dP]DWLTWAC-NH2; linker 3-12 via mXylylene) | < 0.01 | A (t1/2>15.0 minutes) | < 0.01 | > 95 | – | – | –
CC(C)[C@H](NC(=O)CN1CCC(NC(=O)CN2CCN(CC(=O)O)CCN(CC(=O)O)CCN(CC(=O)O)CC2)CC1)C(=O)N[C@@H](Cc1ccc(O)cc1)C(=O)N[C@H]1CSCc2cccc(c2)CSC[C@@H](C(N)=O)NC(=O)[C@H](CO)NC(=O)[C@H](Cc2c[nH]c3ccccc23)NC(=O)[C@H]([C@@H](C)O)NC(=O)[C@H](CC(C)(C)C)NC(=O)[C@H](Cc2c[nH]c3ccccc23)NC(=O)[C@H](CC(=O)O)NC(=O)[C@H]2CCCN2C(=O)[C@H](CCC(=O)O)NC1=O [3BP-4142] ({DOTA}-[X2]VYCE[dP]DW[tBuAla]TWSC-NH2; linker 4-13 via mXylylene) | – | A (t1/2>15.0 minutes) | < 0.01 | – | < 0.01 | 91 | –
CC(C)C[C@@H]1NC(=O)[C@H](Cc2c[nH]c3ccccc23)NC(=O)[C@H](CC(=O)O)NC(=O)[C@H]2CCCN2C(=O)[C@H](CCO)NC(=O)[C@@H](NC(=O)[C@H](Cc2ccc(O)cc2)NC(=O)[C@@H](NC(=O)CN2CCC(NC(=O)CN3CCN(CC(=O)O)CCN(CC(=O)O)CCN(CC(=O)O)CC3)CC2)C(C)C)CSCc2cccc(c2)CSC[C@@H](C(N)=O)NC(=O)[C@H](CO)NC(=O)[C@H](Cc2c[nH]c3ccccc23)NC(=O)[C@H]([C@@H](C)O)NC1=O [3BP-4101] ({DOTA}-[X2]VYC[hSer][dP]DWLTWSC-NH2; linker 4-13 via mXylylene) | – | B (t1/2 between 5.1 and 15.0 minutes) | < 0.01 | – | < 0.01 | 93 | –

Now from value to compound:

IC50 [1, 4] [µM] | t1/2 category (activity) [2] | Kd [2] [µM] | remaining at 24 h, 10 μM (NEP) [%] | IC50 [1, 5] [µM] | % intact compound remaining (incubation time) [3] [%] | remaining at 4 h, […] ([3]; mouse, plasma (K2EDTA)) [%] | Structure (SMILES)
< 0.01 | B (t1/2 between 5.1 and 15.0 minutes) | < 0.01 | – | – | 79 | – | CC(=O)N[C@H](C(=O)N[C@@H](CCCNC(=N)N)C(=O)N[C@H]1CSCc2cccc(c2)CSC[C@@H](C(N)=O)NC(=O)[C@H](CCC(=O)NCCCNC(=O)COCCOCCNC(=O)CN2CCN(CC(=O)O)CCN(CC(=O)O)CCN(CC(=O)O)CC2)NC(=O)[C@H](Cc2c[nH]c3ccccc23)NC(=O)[C@H]([C@@H](C)O)NC(=O)[C@H](CC(C)C)NC(=O)[C@H](Cc2c[nH]c3ccccc23)NC(=O)[C@H](CC(=O)O)NC(=O)[C@H]2CCCN2C(=O)[C@H](CCC(=O)O)NC1=O)C(C)C [3BP-3734] (Ac-VRCE[dP]DWLTWE(NH(CH2)3NH(O2Oc(DOTA)))C-NH2; linker 3-12 via mXylylene)
– | – | – | 82 | – | – | 95 | CC(=O)N[C@H](C(=O)N[C@@H](Cc1ccc(O)cc1)C(=O)N[C@H]1CSCc2cccc(c2)CSC[C@@H](C(=O)NCCCOCCOCCOCCCNC(=O)CCC(=O)N[C@@H](CCCCNC(=O)CN2CCN(CC(=O)O)CCN(CC(=O)O)CCN(CC(=O)O)CC2)C(N)=O)NC(=O)[C@H](CCC(N)=O)NC(=O)[C@H](Cc2c[nH]c3ccccc23)NC(=O)[C@H]([C@@H](C)O)NC(=O)[C@H](CC(C)C)NC(=O)[C@H](Cc2c[nH]c3ccccc23)NC(=O)[C@H](CC(=O)O)NC(=O)CNC(=O)[C@H](CCC(=O)O)NC1=O)C(C)C [3BP-2949] (Ac-VYCEGDWLTWQC-X16; linker 3-12 via mXylylene; N-terminus and C-terminus assumed)
